# Experimental data as given in article PMC9516332 (Frontiers in Oncology, 2022).
# Like-named read-outs stand apart in the source and are kept apart here.
# What was measured:
# 134 cancer cell lines = assay: Cell viability assay (ATPlite, 72 hours), IC50 on cancer cell line panel
# AP-1060 (ETV6-NTRK3) = assay: Cell viability assay; conditions: read-out: IC50 in cell proliferation assay
smiles,measurement,setting,value
C=CC(=O)N1CCC([C@@H]2CCNc3c(C(N)=O)c(-c4ccc(Oc5ccccc5)cc4)nn32)CC1 [zanubrutinib],IC50,"134 cancer cell lines; HEC-6, read-out: IC50 in cell proliferation assay",0.355 µM
same,IC50,"134 cancer cell lines; Homo sapiens, 769-P, read-out: IC50 in cell proliferation assay",4.48 µM
same,IC50,"134 cancer cell lines; Homo sapiens, 786-0, read-out: IC50 in cell proliferation assay",2.19 µM
same,IC50,"134 cancer cell lines; Homo sapiens, A 172, read-out: IC50 in cell proliferation assay",> 31.6 µM
same,IC50,"134 cancer cell lines; Homo sapiens, A204, read-out: IC50 in cell proliferation assay",27.9 µM
same,IC50,"134 cancer cell lines; Homo sapiens, A498, read-out: IC50 in cell proliferation assay",5.51 µM
same,IC50,"134 cancer cell lines; Homo sapiens, A549, read-out: IC50 in cell proliferation assay",24.7 µM
same,IC50,"134 cancer cell lines; Homo sapiens, A704, read-out: IC50 in cell proliferation assay",> 31.6 µM
same,IC50,"134 cancer cell lines; Homo sapiens, A-375, read-out: IC50 in cell proliferation assay",> 31.6 µM
same,IC50,"134 cancer cell lines; Homo sapiens, A-427, read-out: IC50 in cell proliferation assay",8.55 µM
same,IC50,"134 cancer cell lines; Homo sapiens, ACHN, read-out: IC50 in cell proliferation assay",2.75 µM
same,IC50,"134 cancer cell lines; Homo sapiens, AN3-CA, read-out: IC50 in cell proliferation assay",29.8 µM
same,IC50,"134 cancer cell lines; Homo sapiens, ASPC1, read-out: IC50 in cell proliferation assay",7.83 µM
same,IC50,"134 cancer cell lines; Homo sapiens, AU565, read-out: IC50 in cell proliferation assay",0.303 µM
same,IC50,"134 cancer cell lines; Homo sapiens, BT-20, read-out: IC50 in cell proliferation assay",15.1 µM
same,IC50,"134 cancer cell lines; Homo sapiens, BT-474, read-out: IC50 in cell proliferation assay",0.213 µM
same,IC50,"134 cancer cell lines; Homo sapiens, BT-549, read-out: IC50 in cell proliferation assay",12 µM
same,IC50,"134 cancer cell lines; Homo sapiens, BXPC-3, read-out: IC50 in cell proliferation assay",3.04 µM
same,IC50,"134 cancer cell lines; Homo sapiens, C-33-A, read-out: IC50 in cell proliferation assay",1.1 µM
same,IC50,"134 cancer cell lines; Homo sapiens, CAL-27, read-out: IC50 in cell proliferation assay",1.37 µM
same,IC50,"134 cancer cell lines; Homo sapiens, CCF-STTG1, read-out: IC50 in cell proliferation assay",> 31.6 µM
same,IC50,"134 cancer cell lines; Homo sapiens, CCRF-CEM, read-out: IC50 in cell proliferation assay",13.2 µM
same,IC50,"134 cancer cell lines; Homo sapiens, COLO 205, read-out: IC50 in cell proliferation assay",> 31.6 µM
same,IC50,"134 cancer cell lines; Homo sapiens, COLO-829, read-out: IC50 in cell proliferation assay",> 31.6 µM
same,IC50,"134 cancer cell lines; Homo sapiens, DLD-1, read-out: IC50 in cell proliferation assay",> 31.6 µM
same,IC50,"134 cancer cell lines; Homo sapiens, DU-145, read-out: IC50 in cell proliferation assay",1.05 µM
same,IC50,"134 cancer cell lines; Homo sapiens, DU-4475, read-out: IC50 in cell proliferation assay",18.1 µM
same,IC50,"134 cancer cell lines; Homo sapiens, Daoy, read-out: IC50 in cell proliferation assay",23.4 µM
same,IC50,"134 cancer cell lines; Homo sapiens, DoTc2-4510, read-out: IC50 in cell proliferation assay",1.5 µM
same,IC50,"134 cancer cell lines; Homo sapiens, EOL1, read-out: IC50 in cell proliferation assay",2.74 µM
same,IC50,"134 cancer cell lines; Homo sapiens, FaDu, read-out: IC50 in cell proliferation assay",0.751 µM
same,IC50,"134 cancer cell lines; Homo sapiens, G-361, read-out: IC50 in cell proliferation assay",31.4 µM
same,IC50,"134 cancer cell lines; Homo sapiens, HCC827, read-out: IC50 in cell proliferation assay",1.33 µM
same,IC50,"134 cancer cell lines; Homo sapiens, HCC4006, read-out: IC50 in cell proliferation assay",1.36 µM
same,IC50,"134 cancer cell lines; Homo sapiens, HCT-15, read-out: IC50 in cell proliferation assay",15.7 µM
same,IC50,"134 cancer cell lines; Homo sapiens, HCT-116, read-out: IC50 in cell proliferation assay",> 31.6 µM
same,IC50,"134 cancer cell lines; Homo sapiens, HEC-1, read-out: IC50 in cell proliferation assay",> 31.6 µM
same,IC50,"134 cancer cell lines; Homo sapiens, HEC-1B, read-out: IC50 in cell proliferation assay",5.59 µM
same,IC50,"134 cancer cell lines; Homo sapiens, HL-60, read-out: IC50 in cell proliferation assay",> 31.6 µM
same,IC50,"134 cancer cell lines; Homo sapiens, HT, read-out: IC50 in cell proliferation assay",> 31.6 µM
same,IC50,"134 cancer cell lines; Homo sapiens, HT-1080, read-out: IC50 in cell proliferation assay",> 31.6 µM
same,IC50,"134 cancer cell lines; Homo sapiens, Hs746T, read-out: IC50 in cell proliferation assay",> 31.6 µM
same,IC50,"134 cancer cell lines; Homo sapiens, Hs-578T, read-out: IC50 in cell proliferation assay",28.4 µM
same,IC50,"134 cancer cell lines; Homo sapiens, HuTu80, read-out: IC50 in cell proliferation assay",0.961 µM
same,IC50,"134 cancer cell lines; Homo sapiens, J82, read-out: IC50 in cell proliferation assay",> 31.6 µM
same,IC50,"134 cancer cell lines; Homo sapiens, Jurkat E6.1, read-out: IC50 in cell proliferation assay",19.1 µM
same,IC50,"134 cancer cell lines; Homo sapiens, K562, read-out: IC50 in cell proliferation assay",> 31.6 µM
same,IC50,"134 cancer cell lines; Homo sapiens, KATO III, read-out: IC50 in cell proliferation assay",5.47 µM
same,IC50,"134 cancer cell lines; Homo sapiens, KG-1, read-out: IC50 in cell proliferation assay",2.85 µM
same,IC50,"134 cancer cell lines; Homo sapiens, KLE, read-out: IC50 in cell proliferation assay",2.73 µM
same,IC50,"134 cancer cell lines; Homo sapiens, KMS-11, read-out: IC50 in cell proliferation assay",22.6 µM
same,IC50,"134 cancer cell lines; Homo sapiens, KU812, read-out: IC50 in cell proliferation assay",12.3 µM
same,IC50,"134 cancer cell lines; Homo sapiens, Kasumi 1, read-out: IC50 in cell proliferation assay",3.36 µM
same,IC50,"134 cancer cell lines; Homo sapiens, LC-2-ad, read-out: IC50 in cell proliferation assay",16.5 µM
same,IC50,"134 cancer cell lines; Homo sapiens, LNCaP-Clone-FGC, read-out: IC50 in cell proliferation assay",13.7 µM
same,IC50,"134 cancer cell lines; Homo sapiens, LS174T, read-out: IC50 in cell proliferation assay",11.5 µM
same,IC50,"134 cancer cell lines; Homo sapiens, LS-411N, read-out: IC50 in cell proliferation assay",12.4 µM
same,IC50,"134 cancer cell lines; Homo sapiens, LoVo, read-out: IC50 in cell proliferation assay",24.9 µM
same,IC50,"134 cancer cell lines; Homo sapiens, MCF7, read-out: IC50 in cell proliferation assay",> 31.6 µM
same,IC50,"134 cancer cell lines; Homo sapiens, MDA-MB-231, read-out: IC50 in cell proliferation assay",> 31.6 µM
same,IC50,"134 cancer cell lines; Homo sapiens, MDA-MB-453, read-out: IC50 in cell proliferation assay",4.19 µM
same,IC50,"134 cancer cell lines; Homo sapiens, MDA-MB-468, read-out: IC50 in cell proliferation assay",3.9 µM
same,IC50,"134 cancer cell lines; Homo sapiens, MG-63, read-out: IC50 in cell proliferation assay",29.3 µM
same,IC50,"134 cancer cell lines; Homo sapiens, MIA PaCa-2, read-out: IC50 in cell proliferation assay",> 31.6 µM
same,IC50,"134 cancer cell lines; Homo sapiens, MKN-45, read-out: IC50 in cell proliferation assay",> 31.6 µM
same,IC50,"134 cancer cell lines; Homo sapiens, MOLM-13, read-out: IC50 in cell proliferation assay",2.06 µM
same,IC50,"134 cancer cell lines; Homo sapiens, MOLT-4, read-out: IC50 in cell proliferation assay",16.5 µM
same,IC50,"134 cancer cell lines; Homo sapiens, MV4-11, read-out: IC50 in cell proliferation assay",3.72 µM
same,IC50,"134 cancer cell lines; Homo sapiens, MeWo, read-out: IC50 in cell proliferation assay",> 31.6 µM
same,IC50,"134 cancer cell lines; Homo sapiens, NCCIT, read-out: IC50 in cell proliferation assay",11.4 µM
same,IC50,"134 cancer cell lines; Homo sapiens, NCI-H82, read-out: IC50 in cell proliferation assay",> 31.6 µM
same,IC50,"134 cancer cell lines; Homo sapiens, NCI-H460, read-out: IC50 in cell proliferation assay",> 31.6 µM
same,IC50,"134 cancer cell lines; Homo sapiens, NCI-H661, read-out: IC50 in cell proliferation assay",0.612 µM
same,IC50,"134 cancer cell lines; Homo sapiens, NCI-H716, read-out: IC50 in cell proliferation assay",11.7 µM
same,IC50,"134 cancer cell lines; Homo sapiens, NCI-H1650, read-out: IC50 in cell proliferation assay",13.9 µM
same,IC50,"134 cancer cell lines; Homo sapiens, NCI-H1975, read-out: IC50 in cell proliferation assay",4.6 µM
same,IC50,"134 cancer cell lines; Homo sapiens, NCI-H2228, read-out: IC50 in cell proliferation assay",> 31.6 µM
same,IC50,"134 cancer cell lines; Homo sapiens, OVCAR-3, read-out: IC50 in cell proliferation assay",1.53 µM
same,IC50,"134 cancer cell lines; Homo sapiens, PFSK-1, read-out: IC50 in cell proliferation assay",18 µM
same,IC50,"134 cancer cell lines; Homo sapiens, RL95-2, read-out: IC50 in cell proliferation assay",1.17 µM
same,IC50,"134 cancer cell lines; Homo sapiens, RPMI-7951, read-out: IC50 in cell proliferation assay",> 31.6 µM
same,IC50,"134 cancer cell lines; Homo sapiens, RS4-11, read-out: IC50 in cell proliferation assay",26.5 µM
same,IC50,"134 cancer cell lines; Homo sapiens, SHP77, read-out: IC50 in cell proliferation assay",> 31.6 µM
same,IC50,"134 cancer cell lines; Homo sapiens, SK-BR-3, read-out: IC50 in cell proliferation assay",0.141 µM
same,IC50,"134 cancer cell lines; Homo sapiens, SK-N-AS, read-out: IC50 in cell proliferation assay",15.5 µM
same,IC50,"134 cancer cell lines; Homo sapiens, SK-N-FI, read-out: IC50 in cell proliferation assay",> 31.6 µM
same,IC50,"134 cancer cell lines; Homo sapiens, SK-N-MC, read-out: IC50 in cell proliferation assay",23.1 µM
same,IC50,"134 cancer cell lines; Homo sapiens, SK-N-SH, read-out: IC50 in cell proliferation assay",> 31.6 µM
same,IC50,"134 cancer cell lines; Homo sapiens, SNU-5, read-out: IC50 in cell proliferation assay",8.94 µM
same,IC50,"134 cancer cell lines; Homo sapiens, SNU-16, read-out: IC50 in cell proliferation assay",8.54 µM
same,IC50,"134 cancer cell lines; Homo sapiens, SNU-C2B, read-out: IC50 in cell proliferation assay",0.866 µM
same,IC50,"134 cancer cell lines; Homo sapiens, SU-DHL-1, read-out: IC50 in cell proliferation assay",16.8 µM
same,IC50,"134 cancer cell lines; Homo sapiens, SU-DHL-6, read-out: IC50 in cell proliferation assay",0.00375 µM
same,IC50,"134 cancer cell lines; Homo sapiens, SUP-T1, read-out: IC50 in cell proliferation assay",17.5 µM
same,IC50,"134 cancer cell lines; Homo sapiens, SW48, read-out: IC50 in cell proliferation assay",0.043 µM
same,IC50,"134 cancer cell lines; Homo sapiens, SW480, read-out: IC50 in cell proliferation assay",9.56 µM
same,IC50,"134 cancer cell lines; Homo sapiens, SW626, read-out: IC50 in cell proliferation assay",2.71 µM
same,IC50,"134 cancer cell lines; Homo sapiens, SW780, read-out: IC50 in cell proliferation assay",5.82 µM
same,IC50,"134 cancer cell lines; Homo sapiens, SW837, read-out: IC50 in cell proliferation assay",6 µM
same,IC50,"134 cancer cell lines; Homo sapiens, SW872, read-out: IC50 in cell proliferation assay",> 31.6 µM
same,IC50,"134 cancer cell lines; Homo sapiens, SW900, read-out: IC50 in cell proliferation assay",5.84 µM
same,IC50,"134 cancer cell lines; Homo sapiens, SW948, read-out: IC50 in cell proliferation assay",> 31.6 µM
same,IC50,"134 cancer cell lines; Homo sapiens, SW982, read-out: IC50 in cell proliferation assay",> 31.6 µM
same,IC50,"134 cancer cell lines; Homo sapiens, SW-620, read-out: IC50 in cell proliferation assay",4.75 µM
same,IC50,"134 cancer cell lines; Homo sapiens, T98G, read-out: IC50 in cell proliferation assay",> 31.6 µM
same,IC50,"134 cancer cell lines; Homo sapiens, TCC-SUP, read-out: IC50 in cell proliferation assay",> 31.6 µM
same,IC50,"134 cancer cell lines; Homo sapiens, THP-1, read-out: IC50 in cell proliferation assay",> 31.6 µM
same,IC50,"134 cancer cell lines; Homo sapiens, U2OS, read-out: IC50 in cell proliferation assay",10.7 µM
same,IC50,"134 cancer cell lines; Homo sapiens, U-87 MG, read-out: IC50 in cell proliferation assay",> 31.6 µM
same,IC50,"134 cancer cell lines; Homo sapiens, U-118-MG, read-out: IC50 in cell proliferation assay",> 31.6 µM
same,IC50,"134 cancer cell lines; Homo sapiens, UMUC3, read-out: IC50 in cell proliferation assay",24.1 µM
same,IC50,"134 cancer cell lines; Hs766T, read-out: IC50 in cell proliferation assay",> 31.6 µM
same,IC50,"134 cancer cell lines; L-82, read-out: IC50 in cell proliferation assay",17.6 µM
same,IC50,"134 cancer cell lines; Rh30, read-out: IC50 in cell proliferation assay",17.4 µM
same,IC50,AP-1060 (ETV6-NTRK3),> 31.6 µM
